Data from patent publication US20210023232A1, “COMBINATION OF POLYETHYLENE GLYCOL AND RAPAMYCIN AND USE THEREOF” (JENKEM TECHNOLOGY CO., LTD. (TIANJIN), priority 2018, published 2021).

System: KLH antibody
Assay: Influence on keyhole limpet hemoeyanin (KLH) antibody level in immunized mice, serum ELISA potency assay
Assay type: in vivo, mouse
Conditions: for KLH antibody ELISA OD value, data obtained after the third immunization (1: 1K) / KLH antibody ELISA OD value, data obtained after the fourth immunization (1: 1K) / KLH antibody ELISA OD value, data obtained after the third immunization (1: 3K) / KLH antibody ELISA OD value, data obtained after the fourth immunization (1: 3K): Balb/c mice immunized with KLH, test substance given on day 0 and day 7, x ± sd; for KLH antibody ELISA OD value, data obtained after the third immunization (1: 1K) / KLH antibody ELISA OD value, data obtained after the fourth immunization (1: 1K): serum dilution 1:1K; for KLH antibody ELISA OD value, data obtained after the third immunization (1: 1K) / KLH antibody ELISA OD value, data obtained after the third immunization (1: 3K): tail blood day 28-29; for KLH antibody ELISA OD value, data obtained after the fourth immunization (1: 1K) / KLH antibody ELISA OD value, data obtained after the fourth immunization (1: 3K): tail blood day 40-41; for KLH antibody ELISA OD value, data obtained after the third immunization (1: 3K) / KLH antibody ELISA OD value, data obtained after the fourth immunization (1: 3K): serum dilution 1:3K
Procedure: 2.4.1. Antigenic Information: Immunogen: KLH; Tested Substance: KLH
Primary immunization: On the first day, 100 ug antigen (immunogen) and Freund's complete adjuvant in the same volume were formed into a water-in-oil compound by means of mutual injection with a syringe, and then the compound was given to each of 18 mice by subcutaneous multi-point injection.
Second immunization: On the 14th day, 100 ug antigen (immunogen) and Freund's incomplete adjuvant in the same volume were formed into a water-in-oil compound by means of mutual injection with a syringe, and then the compound was given to each of 18 mice by subcutaneous multi-point injection.
Third immunization: On the 24th day, 100 ug antigen (immunogen) and Freund's incomplete adjuvant in the same volume were formed into a water-in-oil compound by means of mutual injection with a syringe, and then the compound was given to each of 18 mice by subcutaneous multi-point injection.
Test of tail blood: On the 28th-29th day, about 20 ul tail blood was collected from the tail vein, followed by 30 min RT and 5 min 5000 rpm centrifugation; then haemocyte precipitate was removed; and serum was taken for Elisa potency assay.
Fourth immunization: On the 34th day, 100 ug antigen (immunogen) and Freund's incomplete adjuvant in the same volume were formed into a water-in-oil compound by means of mutual injection with a syringe, and then the compound was given to each of 18 mice by subcutaneous multi-point injection.
Group G2 (Group IV): immunization was performed with reference to group G1; moreover, […] JK1208R (prepared in Example 1) was given by intravenous injection on the 0th day and 7th day, respectively.
Group G2 (Group IV): immunization was performed with reference to group G1; moreover, 52 μg rapamycin was given by oral administration on the 0th day and 7th day, respectively.
Test of tail blood: On the 40th-41st day, about 20 ul tail blood was collected from the tail vein, followed by 30 min RT and 5 min 5000 rpm centrifugation; then haemocyte precipitate was removed; and serum was taken for ELISA potency assay.
Coating: 10 ug antigen (tested substance) and 10 ml coating buffer (1.6 g […]+2.92 g NaHCO3+100 ml deionized water) were mixed; the solution was applied to the Elisa microplate, 100 ul per pore; the microplate was incubated for 2 h at 37° C. or kept still overnight at 4° C.
Blocking: The antigen coating buffer was sucked and removed from the coated microplate; a blocking buffer (5% dried skimmed milk and coating buffer) was directly added, 150 ul per pore; the microplate was treated for 2 h at 37° C., followed by three times of washing with de-ionized water; then the microplate was provisionally stored at 4° C.
Assay: serum and 1×PBS was mixed at a ratio of 1:1000; 150 ul diluent was added into the first pore; 100 ul 1×PBS were respectively added into each of the 2nd-8th pores; 50 ul liquid was transferred from the first pore into the second pore, followed by suction blow for 10 times; then, 50 ul liquid was transferred into the third pore, followed by suction blow for 10 times; next, 50 ul liquid was transferred into the fourth pore, followed by suction blow for 10 times; the test was done in the similar way in turn until the 7th pore, 50 ul liquid was removed from the 7th pore; the […] pore was a negative control group; the microplate was incubated for 1 h at 37° C., followed by three times of washing with de-ionized water; then a second antibody (goat-anti-mouse IgG-HRP 1:10000 1×PBS) was added, 100 ul each pore; the microplate was incubated for 30 min at 37° C., followed by three times of washing with de-ionized water; a chromogenic solution was added (according to the instructions on the reagent box), 100 ul each pore; the microplate was incubated for 10 min at 37° C. and then ended (2M sulphuric acid, 30 ul per pore). The OD value was tested with the microplate reader.

Compound	KLH antibody ELISA OD value, data obtained after the third immunization (1: 1K)	KLH antibody ELISA OD value, data obtained after the fourth immunization (1: 1K)	KLH antibody ELISA OD value, data obtained after the third immunization (1: 3K)	KLH antibody ELISA OD value, data obtained after the fourth immunization (1: 3K)	Effect on generation of the KLH antibody (after the fourth immunization)	Statistical difference from immune model group after the fourth immunization (at 1:1K and 1:3K)	Statistical difference from immune model group after the third immunization (at 1:3K)
CO[C@H]1C[C@@H]2CC[C@@H](C)[C@@](O)(O2)C(=O)C(=O)N2CCCC[C@H]2C(=O)O[C@H]([C@H](C)C[C@@H]2CC[C@@H](O)[C@H](OC)C2)CC(=O)[C@H](C)/C=C(\C)[C@@H](O)[C@@H](OC)C(=O)[C@H](C)C[C@H](C)/C=C/C=C/C=C/1C [rapamycin]	1.77 ± 0.33	2.56 ± 0.11	1.49 ± 0.38	2.40 ± 0.24			
monomethoxy polyethylene glycol-glutamic dipeptide-rapamycin [JK1208R]	1.33 ± 0.24	1.85 ± 0.32	0.86 ± 0.20	1.54 ± 0.31	could remarkably resist the generation of the KLH antibody	show remarkably difference	show remarkably difference
